# Values joined by “and” are separate entries in the source; they are usually repeats but may differ in a detail not shown here. Equal values may be shown once. ± gives the expanded uncertainty stated by the source.
# Conditions: 313.15 K; Liquid
row,SMILES,vapor or sublimation pressure
1,c1ccccc1 [benzene],24.38 ± 0.18 kPa and 24.36 ± 0.18 kPa
2,CC(C)OC(C)C [diisopropyl ether],37.11 ± 0.27 kPa and 37.09 ± 0.27 kPa and 37.14 ± 0.27 kPa
3,CC(C)CO [2-methyl-1-propanol],4.015 ± 0.056 kPa [middle of 4 runs]

# From the NIST ThermoML archive (doi:10.1016/j.fluid.2005.11.017)
